A word on the IC50: it is the point on the concentration scale where inhibition reaches its midpoint. By Kd is commonly meant the free concentration of one partner at which half of the binding sites on the other are occupied at equilibrium, for simple one-to-one binding. A low value points to tighter binding.

The target of experiment [1] is T1, MAGL (Homo sapiens, UniProt Q99685).
T1 sequence (Q99685 1-303): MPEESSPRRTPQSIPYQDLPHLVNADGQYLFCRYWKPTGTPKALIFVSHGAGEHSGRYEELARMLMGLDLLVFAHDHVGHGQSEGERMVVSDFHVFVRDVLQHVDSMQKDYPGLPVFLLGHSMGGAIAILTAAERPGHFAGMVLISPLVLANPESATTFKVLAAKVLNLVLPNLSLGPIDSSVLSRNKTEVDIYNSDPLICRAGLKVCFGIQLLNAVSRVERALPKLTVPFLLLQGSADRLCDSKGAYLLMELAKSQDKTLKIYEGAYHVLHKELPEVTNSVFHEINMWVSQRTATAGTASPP
Put plainly: serine hydrolase selectivity panel: MAGL.

The target in experiment [2] is T2, FAAH (Felis catus, UniProt A0ABI8A862).
T2 sequence (A0ABI8A862 1-541): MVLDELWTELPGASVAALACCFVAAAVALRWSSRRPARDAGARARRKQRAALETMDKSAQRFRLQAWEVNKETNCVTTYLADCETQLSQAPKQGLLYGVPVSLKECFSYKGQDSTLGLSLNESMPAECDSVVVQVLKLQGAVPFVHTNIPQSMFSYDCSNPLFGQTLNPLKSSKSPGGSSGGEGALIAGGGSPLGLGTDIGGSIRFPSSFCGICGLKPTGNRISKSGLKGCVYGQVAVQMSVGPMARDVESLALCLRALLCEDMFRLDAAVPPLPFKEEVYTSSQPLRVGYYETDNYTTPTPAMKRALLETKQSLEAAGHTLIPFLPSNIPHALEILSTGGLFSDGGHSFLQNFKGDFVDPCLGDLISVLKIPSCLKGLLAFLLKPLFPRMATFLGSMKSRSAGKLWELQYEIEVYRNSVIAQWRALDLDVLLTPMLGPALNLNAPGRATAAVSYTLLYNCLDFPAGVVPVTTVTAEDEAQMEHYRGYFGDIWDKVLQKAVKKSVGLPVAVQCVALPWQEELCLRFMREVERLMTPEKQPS
The note with it: read-out: FAAH IC50, Cat; brain microsome preparations.

Experiment [3] deals with T3, sEH (Rattus norvegicus, UniProt P80299).
T3 sequence (P80299 1-554): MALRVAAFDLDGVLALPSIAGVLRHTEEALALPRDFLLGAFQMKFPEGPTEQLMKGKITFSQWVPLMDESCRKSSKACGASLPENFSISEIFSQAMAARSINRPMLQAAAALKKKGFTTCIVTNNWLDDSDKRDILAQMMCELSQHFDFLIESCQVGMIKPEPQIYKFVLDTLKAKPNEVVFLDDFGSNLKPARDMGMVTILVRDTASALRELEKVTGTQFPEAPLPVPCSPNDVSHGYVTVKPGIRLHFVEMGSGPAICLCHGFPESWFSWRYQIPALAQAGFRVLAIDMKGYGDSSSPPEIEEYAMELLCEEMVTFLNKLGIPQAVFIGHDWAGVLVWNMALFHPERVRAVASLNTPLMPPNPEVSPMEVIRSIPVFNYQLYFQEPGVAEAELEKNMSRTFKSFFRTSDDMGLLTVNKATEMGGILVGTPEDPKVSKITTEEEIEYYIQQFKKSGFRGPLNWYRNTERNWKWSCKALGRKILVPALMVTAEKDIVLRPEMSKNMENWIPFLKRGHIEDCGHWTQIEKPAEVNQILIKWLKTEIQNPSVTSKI
As to the kind of experiment: biochemical.

Experiment [4] has as its target T4, hsEH (Homo sapiens, UniProt P34913).
T4 sequence (P34913 1-555): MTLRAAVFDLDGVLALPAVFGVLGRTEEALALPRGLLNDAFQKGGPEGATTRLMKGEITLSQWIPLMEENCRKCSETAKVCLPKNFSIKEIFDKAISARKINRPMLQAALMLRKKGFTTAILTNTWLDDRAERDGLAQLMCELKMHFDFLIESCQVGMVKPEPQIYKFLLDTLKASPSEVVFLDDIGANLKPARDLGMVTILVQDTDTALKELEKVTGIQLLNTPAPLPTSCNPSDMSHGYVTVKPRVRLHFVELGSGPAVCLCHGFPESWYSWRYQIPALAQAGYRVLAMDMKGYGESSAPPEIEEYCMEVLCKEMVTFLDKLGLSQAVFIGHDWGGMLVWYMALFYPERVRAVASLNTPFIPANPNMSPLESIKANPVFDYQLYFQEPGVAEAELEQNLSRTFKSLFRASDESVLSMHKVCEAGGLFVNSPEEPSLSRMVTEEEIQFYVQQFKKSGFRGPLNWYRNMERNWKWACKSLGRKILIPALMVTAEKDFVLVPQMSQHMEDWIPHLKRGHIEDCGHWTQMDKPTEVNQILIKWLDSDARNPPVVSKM
As to the kind of experiment: human sEH inhibition (hsEH IC50). The class given is biochemical.

The target in experiment [5] is T5, hFAAH (Homo sapiens, UniProt O00519).
T5 construct: made in house
T5 sequence (O00519 1-579): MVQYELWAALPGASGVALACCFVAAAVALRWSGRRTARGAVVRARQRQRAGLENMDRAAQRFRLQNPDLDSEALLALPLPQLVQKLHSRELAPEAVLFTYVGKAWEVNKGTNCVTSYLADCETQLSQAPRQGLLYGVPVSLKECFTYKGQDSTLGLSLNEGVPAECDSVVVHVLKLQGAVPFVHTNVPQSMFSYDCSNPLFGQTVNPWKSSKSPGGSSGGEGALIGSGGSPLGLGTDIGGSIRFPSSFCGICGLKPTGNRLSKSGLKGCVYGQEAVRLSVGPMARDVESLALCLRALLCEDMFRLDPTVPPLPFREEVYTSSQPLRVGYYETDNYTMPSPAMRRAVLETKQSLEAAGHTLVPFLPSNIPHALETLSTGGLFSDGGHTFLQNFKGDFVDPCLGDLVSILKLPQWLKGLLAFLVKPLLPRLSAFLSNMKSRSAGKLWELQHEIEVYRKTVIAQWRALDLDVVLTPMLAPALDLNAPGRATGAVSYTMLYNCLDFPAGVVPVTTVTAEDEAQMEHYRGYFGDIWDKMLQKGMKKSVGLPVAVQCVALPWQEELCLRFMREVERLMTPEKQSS
Put plainly: hFAAH inhibition kinetics (KD, k2). Format: biochemical.

The target of experiment [6] is T5, hFAAH. As to the kind of experiment: recombinant FAAH enzyme with fluorescent substrate OMP (hFAAH IC50, screen). The class given is biochemical.

As for `O=C(Nc1ccc(OC(F)(F)F)cc1)N[C@H]1CC[C@H](Oc2ccc(C(=O)O)cc2)CC1` [t-TUCB, trans-4-{4-[3-(4-trifluoromethoxyphenyl)-ureido]cyclohexyloxy}benzoic acid], the values for the IC50 in experiment [1], in experiment [2] and in experiment [3] were > 10000 nM, > 1000 nM and 54 nM, respectively.
`COc1ccc(NC(=O)N2CCC(Cc3cnc4ccccc4c3)CC2)cc1` [Compound B-5, N-(4-methoxyphenyl)-4-(quinolin-3-ylmethyl)piperidine-1-carboxamide]: in experiment [4], the IC50 came to 130 ± 40 nM and the “increase of activity/potency towards sEH” value was found to be 4 fold. In addition, in experiment [5], the affinity, expressed as Kd, was 24 ± 4 nM and the “hFAAH k2” value was determined as 0.37 ± 0.03 min⁻¹. The IC50 in experiment [6] came to 32 nM.
On to `COc1ccc(NC(=O)N2CCC(Cc3cccc(Oc4ccc(C(F)(F)F)cn4)c3)CC2)cc1` [Compound B-9, N-(4-methoxyphenyl)-4-(3-((5-(trifluoromethyl)pyridin-2-yl)oxy)benzyl) piperidine-1-carboxamide], for which, in experiment [5], the affinity, expressed as Kd, was 0.7 ± 0.27 nM and the “hFAAH k2” value is 0.26 ± 0.03 min⁻¹. Further, the “increase in potency towards FAAH” value in experiment [6] (relative to B-5) was 32 fold.
`COc1ccc(NC(=O)N2CCC(c3nc(-c4ccccc4)cs3)CC2)cc1` [Compound B-10, N-(4-methoxyphenyl)-4-(4-phenylthiazol-2-yl)piperidine-1-carboxamide] displayed an IC50 in experiment [4] of 570 ± 170 nM. In experiment [5], the affinity, expressed as Kd, was 750 ± 20 nM and the “hFAAH k2” value was 0.55 ± 0.02 min⁻¹. Further, the IC50 in experiment [6] amounted to 250 nM.
As to `O=C(Nc1ccc(OC(F)(F)F)cc1)N[C@H]1CC[C@H](Oc2ccc(C(=O)OCc3ccccc3)cc2)CC1` [Compound A-14, benzyl 4-((trans-4-(3-(4-(trifluoromethoxy)phenyl)ureido)cyclohexyl)oxy) benzoate], the IC50 is > 10000 nM in experiment [1] and > 1000 nM in experiment [2].
Take `COc1ccc(NC(=O)N2CCC(Cc3ccc4ccccc4c3)CC2)cc1` [Compound B-8, N-(4-methoxyphenyl)-4-(naphthalen-2-ylmethyl)piperidine-1-carboxamide]: the IC50 in experiment [4] turned out to be 120 ± 30 nM. Further, in experiment [5], the affinity, expressed as Kd, was 18 ± 4 nM and the “hFAAH k2” value came out at 0.26 ± 0.03 min⁻¹. In experiment [6], the IC50 came out at 7.4 nM.
`O=C(Nc1cccnc1)N1CCC(Cc2cccc(Oc3ccc(C(F)(F)F)cn3)c2)CC1` [PF-3845]: the IC50 in experiment [2] was < 0.1 nM; in experiment [6] it was 0.4 nM.
Consider `O=C(Nc1ccc(OC(F)(F)F)cc1)N[C@H]1CC[C@H](Oc2ccc(O)cc2)CC1` [Compound A-21, trans-1-(−4-(4-hydroxy-phenoxy)cyclohexyl)-3-(4-(trifluoromethoxy)phenyl)urea], for which the IC50 in experiment [1] is > 10000 nM; in experiment [2], 130 nM.

Source of the values: patent US11873288B2, “Inhibitors for soluble epoxide hydrolase (sEH) and fatty acid amide hydrolase (FAAH)” (The Regents of the University of California, priority 2016, dated 2024).
